Values of other authors as cited in patent US6909006B1, “Cyclopropylindole derivatives” (priority 1999, dated 2005).

System: tumour cells growing in vitro

SMILES: COc1c(O)c2c(c3cc(C(=O)N4CCc5c4c(O)c(OC)c4[nH]c(C(=O)N6CC7CC78C6=CC(=O)c6[nH]cc(C)c68)cc54)[nH]c13)CCN2C(N)=O (stereo not shown) [CC-1065]
- IC50s in tumour cells growing in vitro: low pM range
